Our source for the AC50 values is ChEMBL document CHEMBL5291721, “A preclinical secondary pharmacology resource illuminates target-adverse drug reaction associations of marketed drugs” (Nat Commun, 2023).

What is called AC50 is the concentration giving half of the maximal activity seen. Low readings indicate greater potency, high ones weaker potency.

Test [1] has as its target Sodium-dependent noradrenaline transporter (Homo sapiens, UniProt P23975).
Test [2] deals with T1, B2 bradykinin receptor (Homo sapiens, UniProt P30411).
T1 sequence (P30411 whole entry): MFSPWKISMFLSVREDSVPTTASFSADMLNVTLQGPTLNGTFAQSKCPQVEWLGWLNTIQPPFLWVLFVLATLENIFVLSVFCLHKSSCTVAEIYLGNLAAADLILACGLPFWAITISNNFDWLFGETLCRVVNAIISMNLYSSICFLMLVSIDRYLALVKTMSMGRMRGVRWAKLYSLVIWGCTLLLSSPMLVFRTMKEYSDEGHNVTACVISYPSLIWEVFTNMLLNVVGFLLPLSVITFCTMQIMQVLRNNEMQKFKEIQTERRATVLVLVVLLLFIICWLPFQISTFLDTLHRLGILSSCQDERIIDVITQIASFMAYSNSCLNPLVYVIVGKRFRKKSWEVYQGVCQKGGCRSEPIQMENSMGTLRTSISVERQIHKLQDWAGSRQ

Test [3] has as its target Histamine H1 receptor (Homo sapiens, UniProt P35367).
Test [4] deals with T2, 5-hydroxytryptamine receptor 2B (Homo sapiens, UniProt P41595). In kind it is functional, cell-based.
Test [5] addresses T3, Alpha-2A adrenergic receptor (Homo sapiens, UniProt P08913).
T3 sequence (P08913 whole entry): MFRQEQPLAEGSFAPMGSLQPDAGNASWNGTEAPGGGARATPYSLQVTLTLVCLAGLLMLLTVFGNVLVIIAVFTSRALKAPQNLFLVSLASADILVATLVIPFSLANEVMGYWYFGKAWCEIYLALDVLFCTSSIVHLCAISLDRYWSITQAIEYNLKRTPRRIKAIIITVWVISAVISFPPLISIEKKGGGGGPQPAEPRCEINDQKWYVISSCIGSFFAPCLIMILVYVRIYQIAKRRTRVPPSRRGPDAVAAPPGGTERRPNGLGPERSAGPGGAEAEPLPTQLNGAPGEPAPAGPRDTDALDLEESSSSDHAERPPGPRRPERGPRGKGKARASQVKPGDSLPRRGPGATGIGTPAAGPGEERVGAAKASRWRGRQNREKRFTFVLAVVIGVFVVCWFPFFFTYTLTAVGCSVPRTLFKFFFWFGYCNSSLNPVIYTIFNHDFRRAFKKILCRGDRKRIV
It is filed as functional, cell-based.

In test [6] the target is Histamine H3 receptor (Homo sapiens, UniProt Q9Y5N1).
Test [7] concerns the target Adenosine receptor A2a (Homo sapiens, UniProt P29274).
The target in test [8] is Growth hormone secretagogue receptor type 1 (Homo sapiens, UniProt Q92847).
Test [9] deals with T2, 5-hydroxytryptamine receptor 2B. In kind it is functional, cell-based. This is another data set of the same source.
The target in test [10] is Vasopressin V1a receptor (Homo sapiens, UniProt P37288).
For test [11], the target named is Kappa-type opioid receptor (Homo sapiens, UniProt P41145).
In test [12] the target is T4, Adenosine receptor A1 (Homo sapiens, UniProt P30542).
T4 sequence (P30542 whole entry): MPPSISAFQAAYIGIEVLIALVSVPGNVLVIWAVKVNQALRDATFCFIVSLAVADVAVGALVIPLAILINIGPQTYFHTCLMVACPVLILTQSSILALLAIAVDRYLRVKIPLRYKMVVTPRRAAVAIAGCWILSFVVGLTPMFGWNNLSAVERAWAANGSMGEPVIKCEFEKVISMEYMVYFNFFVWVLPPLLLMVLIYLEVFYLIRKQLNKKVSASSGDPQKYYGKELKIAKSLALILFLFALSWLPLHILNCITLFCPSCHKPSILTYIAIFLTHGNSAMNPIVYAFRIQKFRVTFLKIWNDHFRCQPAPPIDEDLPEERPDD

Test [13] has as its target Muscarinic acetylcholine receptor M3 (Homo sapiens, UniProt P20309).
Test [14] addresses Mu-type opioid receptor (Homo sapiens, UniProt P35372). Put plainly: biochemical. It is filed as functional.
In test [15] the target is Gamma-aminobutyric acid receptor subunit alpha-1 (Rattus norvegicus, UniProt P62813). It is filed as functional.
Test [16] deals with Cannabinoid receptor 1 (Homo sapiens, UniProt P21554). It is filed as functional, cell-based.
Test [17] deals with Vasopressin V2 receptor (Homo sapiens, UniProt P30518).
Test [18] deals with T5, Alpha-2C adrenergic receptor (Homo sapiens, UniProt P18825).
T5 sequence (P18825 whole entry): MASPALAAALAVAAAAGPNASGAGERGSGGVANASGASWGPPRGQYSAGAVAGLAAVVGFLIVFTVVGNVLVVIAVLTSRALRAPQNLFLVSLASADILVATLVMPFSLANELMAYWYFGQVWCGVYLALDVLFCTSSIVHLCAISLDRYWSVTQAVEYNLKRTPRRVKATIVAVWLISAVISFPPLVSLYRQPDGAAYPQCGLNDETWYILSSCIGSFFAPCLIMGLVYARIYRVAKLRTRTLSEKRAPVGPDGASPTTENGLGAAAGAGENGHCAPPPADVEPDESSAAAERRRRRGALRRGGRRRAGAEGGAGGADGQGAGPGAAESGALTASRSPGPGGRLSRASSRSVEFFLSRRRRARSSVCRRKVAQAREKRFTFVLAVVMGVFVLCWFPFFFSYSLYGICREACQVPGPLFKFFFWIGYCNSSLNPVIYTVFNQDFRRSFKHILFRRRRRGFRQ
It is filed as functional.
Note: assay procedure not described here.

Sequence of Mu-type opioid receptor (P35372 whole entry): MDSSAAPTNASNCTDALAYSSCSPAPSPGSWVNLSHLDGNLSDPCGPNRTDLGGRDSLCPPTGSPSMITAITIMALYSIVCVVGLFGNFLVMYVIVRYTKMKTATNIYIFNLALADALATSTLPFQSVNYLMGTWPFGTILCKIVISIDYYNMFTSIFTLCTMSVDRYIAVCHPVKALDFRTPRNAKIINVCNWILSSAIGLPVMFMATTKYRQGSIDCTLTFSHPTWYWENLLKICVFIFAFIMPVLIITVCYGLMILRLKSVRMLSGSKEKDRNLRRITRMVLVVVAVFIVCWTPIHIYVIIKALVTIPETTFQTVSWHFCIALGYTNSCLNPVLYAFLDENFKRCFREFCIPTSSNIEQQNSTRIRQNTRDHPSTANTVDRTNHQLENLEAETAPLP
Sequence of Vasopressin V2 receptor (P30518 whole entry): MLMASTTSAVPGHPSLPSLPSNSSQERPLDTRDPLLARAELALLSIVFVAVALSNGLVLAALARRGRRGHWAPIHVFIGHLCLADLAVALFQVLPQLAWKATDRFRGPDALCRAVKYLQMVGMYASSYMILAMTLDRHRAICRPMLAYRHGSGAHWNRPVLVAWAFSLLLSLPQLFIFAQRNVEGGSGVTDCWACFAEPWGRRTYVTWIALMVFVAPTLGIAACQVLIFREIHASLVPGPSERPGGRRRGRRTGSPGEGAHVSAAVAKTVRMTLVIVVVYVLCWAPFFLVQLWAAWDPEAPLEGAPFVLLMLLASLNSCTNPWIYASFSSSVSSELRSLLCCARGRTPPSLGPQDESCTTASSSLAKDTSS
Sequence of Vasopressin V1a receptor (P37288 whole entry): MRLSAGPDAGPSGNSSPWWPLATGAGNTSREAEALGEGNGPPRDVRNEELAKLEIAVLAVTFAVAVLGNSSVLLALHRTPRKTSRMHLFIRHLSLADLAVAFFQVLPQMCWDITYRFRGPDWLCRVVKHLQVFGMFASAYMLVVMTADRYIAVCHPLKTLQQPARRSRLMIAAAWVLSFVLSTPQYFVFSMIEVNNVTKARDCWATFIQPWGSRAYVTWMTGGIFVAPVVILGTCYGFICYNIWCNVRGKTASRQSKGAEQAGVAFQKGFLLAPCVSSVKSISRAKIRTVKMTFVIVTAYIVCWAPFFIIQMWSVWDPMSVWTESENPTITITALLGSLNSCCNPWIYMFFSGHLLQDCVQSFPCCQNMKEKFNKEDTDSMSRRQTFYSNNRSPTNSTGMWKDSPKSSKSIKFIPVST
Sequence of Histamine H3 receptor (Q9Y5N1 whole entry): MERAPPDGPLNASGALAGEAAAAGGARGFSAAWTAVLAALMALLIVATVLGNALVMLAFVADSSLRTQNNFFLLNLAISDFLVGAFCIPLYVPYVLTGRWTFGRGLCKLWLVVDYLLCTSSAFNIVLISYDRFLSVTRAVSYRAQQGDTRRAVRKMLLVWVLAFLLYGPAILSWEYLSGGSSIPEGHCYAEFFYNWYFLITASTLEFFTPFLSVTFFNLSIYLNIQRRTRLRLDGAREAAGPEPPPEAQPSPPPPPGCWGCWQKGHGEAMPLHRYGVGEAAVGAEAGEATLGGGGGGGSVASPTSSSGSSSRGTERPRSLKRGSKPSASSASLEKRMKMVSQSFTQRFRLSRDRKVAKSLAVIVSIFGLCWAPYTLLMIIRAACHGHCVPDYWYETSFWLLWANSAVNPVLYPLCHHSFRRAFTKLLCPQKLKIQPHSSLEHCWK
Sequence of Cannabinoid receptor 1 (P21554 whole entry): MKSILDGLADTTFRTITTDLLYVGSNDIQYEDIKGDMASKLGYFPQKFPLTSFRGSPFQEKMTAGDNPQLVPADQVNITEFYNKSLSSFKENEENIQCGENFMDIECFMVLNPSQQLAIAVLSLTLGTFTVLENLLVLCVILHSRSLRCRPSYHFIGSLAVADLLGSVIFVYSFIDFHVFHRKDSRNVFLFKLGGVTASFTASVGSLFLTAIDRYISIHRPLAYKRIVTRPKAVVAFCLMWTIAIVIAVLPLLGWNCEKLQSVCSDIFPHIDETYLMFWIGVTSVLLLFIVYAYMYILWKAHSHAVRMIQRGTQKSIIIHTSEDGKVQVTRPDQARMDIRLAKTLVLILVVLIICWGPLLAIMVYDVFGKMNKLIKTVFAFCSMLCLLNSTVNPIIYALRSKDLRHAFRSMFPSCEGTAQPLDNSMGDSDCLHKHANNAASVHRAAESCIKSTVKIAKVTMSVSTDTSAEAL
Sequence of Gamma-aminobutyric acid receptor subunit alpha-1 (P62813 whole entry): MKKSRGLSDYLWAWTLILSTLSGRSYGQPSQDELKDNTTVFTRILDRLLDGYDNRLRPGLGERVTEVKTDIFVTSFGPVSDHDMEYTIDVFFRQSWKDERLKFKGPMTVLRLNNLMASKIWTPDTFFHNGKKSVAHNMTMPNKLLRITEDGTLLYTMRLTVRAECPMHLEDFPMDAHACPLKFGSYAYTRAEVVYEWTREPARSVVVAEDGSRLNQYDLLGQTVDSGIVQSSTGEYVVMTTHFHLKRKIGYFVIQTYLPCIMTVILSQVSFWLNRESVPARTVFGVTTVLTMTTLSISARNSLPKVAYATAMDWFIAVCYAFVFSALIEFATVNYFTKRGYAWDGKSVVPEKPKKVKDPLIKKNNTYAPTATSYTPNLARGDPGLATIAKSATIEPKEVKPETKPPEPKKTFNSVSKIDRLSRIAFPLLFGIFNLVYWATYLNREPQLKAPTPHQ
Sequence of Histamine H1 receptor (P35367 whole entry): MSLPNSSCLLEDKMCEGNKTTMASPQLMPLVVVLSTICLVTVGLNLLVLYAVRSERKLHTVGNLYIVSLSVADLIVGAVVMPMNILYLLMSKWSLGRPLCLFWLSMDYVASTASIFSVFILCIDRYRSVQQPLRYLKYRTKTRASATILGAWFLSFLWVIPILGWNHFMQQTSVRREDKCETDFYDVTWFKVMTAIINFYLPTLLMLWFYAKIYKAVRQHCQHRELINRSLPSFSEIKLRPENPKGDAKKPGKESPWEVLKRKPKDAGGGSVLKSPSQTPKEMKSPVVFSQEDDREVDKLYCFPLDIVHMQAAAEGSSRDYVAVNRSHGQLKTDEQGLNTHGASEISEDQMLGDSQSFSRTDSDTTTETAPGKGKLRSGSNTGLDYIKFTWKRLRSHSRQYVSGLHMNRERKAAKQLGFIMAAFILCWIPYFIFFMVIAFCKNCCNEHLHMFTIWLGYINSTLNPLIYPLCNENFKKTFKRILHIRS
Sequence of Muscarinic acetylcholine receptor M3 (P20309 whole entry): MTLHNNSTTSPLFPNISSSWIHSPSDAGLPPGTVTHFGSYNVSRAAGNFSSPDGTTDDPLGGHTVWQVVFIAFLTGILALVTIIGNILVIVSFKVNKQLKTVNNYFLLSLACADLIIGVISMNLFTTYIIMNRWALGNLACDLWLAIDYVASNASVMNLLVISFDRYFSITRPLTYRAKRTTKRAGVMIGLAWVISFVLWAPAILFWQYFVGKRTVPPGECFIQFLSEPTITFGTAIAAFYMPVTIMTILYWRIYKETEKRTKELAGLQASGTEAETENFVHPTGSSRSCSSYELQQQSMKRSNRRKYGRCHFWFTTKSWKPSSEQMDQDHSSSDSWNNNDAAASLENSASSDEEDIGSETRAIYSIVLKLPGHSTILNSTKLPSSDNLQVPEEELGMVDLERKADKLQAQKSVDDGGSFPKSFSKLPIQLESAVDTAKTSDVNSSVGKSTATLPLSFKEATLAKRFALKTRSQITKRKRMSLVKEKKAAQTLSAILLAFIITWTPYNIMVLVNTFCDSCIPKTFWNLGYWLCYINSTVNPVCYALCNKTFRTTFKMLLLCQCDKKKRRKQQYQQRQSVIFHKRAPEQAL
Sequence of Kappa-type opioid receptor (P41145 whole entry): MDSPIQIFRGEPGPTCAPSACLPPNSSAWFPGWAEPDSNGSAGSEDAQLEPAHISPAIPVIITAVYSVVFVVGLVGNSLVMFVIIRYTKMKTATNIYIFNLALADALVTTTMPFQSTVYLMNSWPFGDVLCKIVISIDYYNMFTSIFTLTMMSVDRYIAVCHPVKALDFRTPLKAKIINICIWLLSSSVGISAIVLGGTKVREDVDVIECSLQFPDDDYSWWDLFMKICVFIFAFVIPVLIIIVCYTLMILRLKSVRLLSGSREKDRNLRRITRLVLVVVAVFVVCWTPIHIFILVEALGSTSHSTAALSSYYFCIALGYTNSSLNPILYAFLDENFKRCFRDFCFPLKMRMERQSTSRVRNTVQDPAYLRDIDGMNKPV
Sequence of Growth hormone secretagogue receptor type 1 (Q92847 whole entry): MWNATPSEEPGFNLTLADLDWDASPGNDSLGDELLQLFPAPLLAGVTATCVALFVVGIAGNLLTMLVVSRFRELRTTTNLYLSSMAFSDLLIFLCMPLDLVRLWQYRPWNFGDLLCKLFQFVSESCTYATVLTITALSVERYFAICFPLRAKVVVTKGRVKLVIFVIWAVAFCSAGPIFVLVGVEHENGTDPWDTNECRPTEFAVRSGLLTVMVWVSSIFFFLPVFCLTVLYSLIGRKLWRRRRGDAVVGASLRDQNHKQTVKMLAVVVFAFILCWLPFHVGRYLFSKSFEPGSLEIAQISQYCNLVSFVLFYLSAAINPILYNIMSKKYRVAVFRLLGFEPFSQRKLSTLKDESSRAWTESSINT
Sequence of Adenosine receptor A2a (P29274 whole entry): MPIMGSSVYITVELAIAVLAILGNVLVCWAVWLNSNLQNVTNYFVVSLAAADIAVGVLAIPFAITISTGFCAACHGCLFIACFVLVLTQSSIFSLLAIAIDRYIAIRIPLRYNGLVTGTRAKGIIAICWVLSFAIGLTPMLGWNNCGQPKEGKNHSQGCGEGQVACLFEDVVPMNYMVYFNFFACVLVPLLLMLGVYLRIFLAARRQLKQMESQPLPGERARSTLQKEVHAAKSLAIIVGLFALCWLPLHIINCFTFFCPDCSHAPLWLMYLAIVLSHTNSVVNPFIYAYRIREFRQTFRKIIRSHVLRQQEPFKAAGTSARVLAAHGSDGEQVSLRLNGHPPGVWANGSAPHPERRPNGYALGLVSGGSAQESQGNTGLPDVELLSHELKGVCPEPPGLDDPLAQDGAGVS

`CC(C)OC(=O)CCC/C=C\C[C@@H]1[C@@H](CC[C@@H](O)CCc2ccccc2)[C@H](O)C[C@@H]1O` [LATANOPROST]: the AC50 in [1], in [2], in test [3], in test [4], in test [5] and in test [6] was greater than 30 µM throughout. Also, the AC50 in [7], in test [8], in test [9], in [10], in test [11] and in test [12] was greater than 30 µM in each case. For the same compound, the AC50 in test [13], in test [14], in [15], in test [16], in [17] and in test [18] was greater than 30 µM each time.
Regarding `CCC1(CC)C(=O)NCC(C)C1=O` (centres undefined) [METHYPRYLON], the AC50 in [1], in test [2], in [3], in test [4], in test [5] and in test [6] was greater than 30 µM throughout. Moreover, the AC50 in [7], in test [8], in test [9], in test [10], in test [11] and in test [12] was greater than 30 µM each time. For the same compound, the AC50 in test [13], in test [14], in test [15], in test [16], in [17] and in test [18] was greater than 30 µM in each case.
Turning to `CCOC(=O)[N-]c1cn(N2CCOCC2)n[o+]1` [MOLSIDOMINE], the half-maximal activity concentration (AC50) in test [1], in test [2], in [3], in test [4], in [5] and in [6] was greater than 30 µM in each case. The AC50 in [7], in test [8], in test [9], in test [10], in test [11] and in test [12] was greater than 30 µM each time. The AC50 in test [13], in [14], in [15], in [16], in test [17] and in test [18] was greater than 30 µM throughout.
For `OC(CNCC(O)C1CCc2cc(F)ccc2O1)C1CCc2cc(F)ccc2O1` (centres undefined) [NEBIVOLOL], the AC50 in test [1] is 1.5 µM; in [2], greater than 30 µM; in [3], greater than 30 µM; in [4], 8.8 µM; in [5] it was 8.1 µM; in test [6], 23 µM. Also, the AC50 was greater than 30 µM in test [7]; 4.6 µM in [8]; greater than 30 µM in test [9]; greater than 30 µM in test [10]; 10 µM in [11]; greater than 30 µM in [12]. For the same compound, the AC50 in test [13] was greater than 30 µM; in test [14], 3.3 µM; in test [15], greater than 30 µM; in [16], 24 µM; in test [17] it was 29 µM; in test [18], 2 µM.
For the compound `Cc1ccc(-n2nccn2)c(C(=O)N2CCN(c3nc4cc(Cl)ccc4o3)CC[C@H]2C)c1` [SUVOREXANT], the AC50 in test [1], in test [2], in [3], in test [4], in test [5] and in test [6] was greater than 30 µM each time. The half-maximal activity concentration (AC50) in test [7], in [8], in test [9], in test [10], in test [11] and in test [12] was greater than 30 µM each time. The AC50 in test [13], in [14], in [15], in [16], in [17] and in test [18] was greater than 30 µM each time.
On to `CCN(CC)C(=O)N[C@H]1C[C@@H]2c3cccc4[nH]cc(c34)C[C@H]2N(C)C1` [TERGURIDE], for which the AC50 was greater than 30 µM in [1]; greater than 30 µM in [2]; 2.1 µM in [3]; 0.58 µM in test [4]; 0.018 µM in test [5]; greater than 30 µM in [6]. Further, the AC50 in test [7], in test [8], in test [9], in [10], in test [11] and in test [12] was greater than 30 µM in each case. Also, the AC50 is greater than 30 µM in [13]; greater than 30 µM in test [14]; greater than 30 µM in test [15]; greater than 30 µM in [16]; greater than 30 µM in [17]; 0.0031 µM in test [18].
With `CC(CC(c1ccccc1)c1ccccc1)NC(C)(C)C` (centres undefined) [TERODILINE], the AC50 in [1] was greater than 30 µM; in test [2] it was greater than 30 µM; in [3], 0.76 µM; in test [4], greater than 30 µM; in [5] it was greater than 30 µM; in test [6], greater than 30 µM. Further, the AC50 was greater than 30 µM in test [7]; greater than 30 µM in [8]; greater than 30 µM in test [9]; greater than 30 µM in [10]; 8.4 µM in [11]; greater than 30 µM in test [12]. For the same compound, the AC50 in test [13] is 1.1 µM; in test [14], greater than 30 µM; in test [15], greater than 30 µM; in [16], greater than 30 µM; in [17] it was greater than 30 µM; in test [18], greater than 30 µM.
Turning to `COc1cc2c(N)nc(N3CCN(C(=O)OCC(C)(C)O)CC3)nc2c(OC)c1OC` [TRIMAZOSIN], the AC50 in test [1], in [2], in test [3], in [4], in [5] and in test [6] was greater than 30 µM each time. Further, the concentration at half-maximal activity (AC50) in test [7], in [8], in test [9], in [10], in [11] and in test [12] was greater than 30 µM throughout. Moreover, the AC50 in [13] was greater than 30 µM; in test [14], greater than 30 µM; in test [15], greater than 30 µM; in test [16] it was greater than 30 µM; in test [17], greater than 30 µM; in test [18] it was 13 µM.
